What was measured:
PHD = PHD activity in cells co-expressing GFP-ODD fusion protein and HA-pVHL (GFP fluorescence, western blot); assay type: cell-based, human
HIF-1α = HIF-1α levels in cells incubated with DMS under normoxic conditions (western blot); assay type: cell-based; settings: 20 mM, 48 hours
Description: Protein analyses. […] Following SDS-PAGE, proteins were blotted onto nitrocellulose and analyzed with the following antibodies: anti-HIF-1α (BD Biosciences), anti-HA (Roche), anti-GFP (BD Biosciences) or anti-Actin (Sigma).

HIF1α [1] = test: HIF1α levels in HEK293 cells in which HIF1α was induced by DMS (western blot); assay type: cell-based, human; settings: HEK293, DMS 24 hours, then ester 3 hours
HIF1α [2] = test: HIF1α induction in SDH-inhibited cells transfected with Di3 shRNA (western blot); assay type: cell-based; settings: 24 hour treatment
HEK293 cells = test: Measurement of intracellular α-ketoglutarate (glutamate dehydrogenase assay); assay type: cell-based, human; settings: 1 mM, 5 hours
[3] = test system: cells under hypoxic conditions; test: Cell death of cells grown under hypoxic conditions (0.5% oxygen)
[4] = test system: PHD (HIFα prolyl hydroxylase); test: In vitro PHD activity (hydroxylation of in vitro-translated HA-ODDD by cell extracts, gel shift on SDS-PAGE); assay type: biochemical, human

For [Cl-].[Cl-].[Co+2] [CoCl2], the “GFP-ODD levels (western blot)” value (PHD) was “increase in GFP-ODD levels”.

With COC(=O)CCC(=O)OC [DMS, dimethyl ester succinic acid] the “HIF-1α levels (western blot)” value (HIF-1α) was “elevated levels of HIF-1α”, the GFP fluorescence (PHD; 48 hours after treatment with DMS, 10% oxygen) was “increase in GFP fluorescence” and the “Level of GFP-ODD (western blot)” value (PHD; DMS alone, 48 hours) was “rose”.

For O=C(O)CCC(=O)C(=O)OCc1cccc(C(F)(F)F)c1 [TFMB-α-ketoglutarate, 2-Oxopentanedioic acid 1-(3-trifluoromethyl-benzyl)ester], the “HIF1α protein levels after DMS induction” value (HIF1α [1]) was “substantially reduce the levels of HIF1α protein”, the “GFP fluorescence in DMS-treated cells” value (PHD) was “reduced GFP fluorescence” and the “HIF1α induction observed with Di3 transfection” value (HIF1α [2]) was “reversed”.

With O=C(O)CCC(=O)C(=O)O [free α-ketoglutaric acid, 2-Oxo-pentanedioic acid] the “Change of intracellular α-ketoglutarate above basal levels” value (HEK293 cells) was “no increase”.

CCCCCCCCOC(=O)C(=O)CCC(=O)O [octyl-α-ketoglutarate, 2-Oxo-pentanedioic acid 1-octyl ester] was tested, and the “Cell death under hypoxic conditions” value [3] was “significant cell death”, the “HIF1α protein levels after DMS induction” value (HIF1α [1]) was “reversed DMS-induction of HIF1α completely” and the “GFP fluorescence in DMS-treated cells” value (PHD) was “reduced GFP fluorescence”. For the same molecule, the “HIF1α induction observed with Di3 transfection” value (HIF1α [2]) was “reversed”.

With O=C(O)CCC(=O)O [succinate, succinic acid] the “PHD activity (appearance of non-hydroxylated HA-ODD)” value ([4]; HeLa cell extracts, succinate held constant at 1 mM) was “inhibition of PHD activity”, the “PHD activity in vitro (production of hydroxylated HA-ODDD, mobility on SDS-PAGE)” value ([4]; cell extracts with α-ketoglutarate, Fe2+, ascorbate, DFO 5 mM, succinate 0.1-5.0 mM) was “decrease in the production of hydroxylated HA-ODDD” and the IC50 ([4]; read-out: IC50 for inhibition of PHD activity (HA-ODDD hydroxylation), cell extracts with α-ketoglutarate, Fe2+, ascorbate) was 500 µM.
